Consider five compounds from publication PMC9030166, “Natural Phaeosphaeride A Derivatives Overcome Drug Resistance of Tumor Cells and Modulate Signaling Pathways” (Pharmaceuticals, 2022).

Values joined by “and” are separate entries in the source; they are usually repeats but may differ in a detail not shown here. Identical values can stand only once.

The subject of one data set is PC3. As to the kind of experiment: MTT cytotoxicity, PC-3 prostate adenocarcinoma cells. It is filed as cell-based, human. Particulars: 48 h; for IC50: Homo sapiens, PC-3, adhesive tumor culture. The text has this:
(§1) Cell cultures used in the work: adhesive cultures HBL-100 cells (cells of a normal mammary gland epithelium, immortalized by the SV40 virus and acquired tumorigenicity); MCF-7 breast cancer cells; PC-3 prostate adenocarcinoma cells; HCT-116 colorectal cancer cells; non-small cell lung cancer cells A549; human embryonic kidney cells HEK293; suspension cultures (NCI-H929 and RPMI8226 multiple myeloma cells), K562 chronic myeloid leukemia cells; THP-1 acute monocytic leukemia cells; and Jurkat acute T-cell leukemia cells. We also used several primary cultures of soft tissue sarcomas at 3–4passeges, kindly provided by T.I. Fetisov (The Ethics Committee of N.N. Blokhin NMRCO, protocol code 18-28-09095 and date of approval 28 September 2018).
(§2) Modifications of cell lines: K562/i-S9 is a clone obtained after transfection of K562 cells with the ABCB1 (MDR1) gene-encoding P-glycoprotein [36]. Cells HBL-100/Dox and K562/i-S9_Dox are cells obtained by long-term selection with increasing concentrations of doxorubicin (Sigma-Aldrich, St. Louis, MO, USA) from HBL-100 and K562/i-S9 cells, respectively. MCF-7, A594 cells, and primary cultures of soft tissue sarcomas were cultured in DMEM medium (PanEko, Russia), PC-3 and HCT-116 cells and all suspension cultures in RPMI1640 medium (PanEko, Russia) supplemented with 10% fetal bovine serum (GE Healthcare LifeSciences, USA), and gentamicin at a concentration of 40 μg/mL at 37 °C and 5% CO2.
(§3) Cells MCF-7, PC-3, A549, and HCT-116, and primary cultures of STSwere seeded in 96-well plates, 6 × 10^3 cells per well in 90 μL of culture medium. Suspension cultures were seeded at a concentration of 25 × 10^3 cells per well in 135 μL of medium. The test substances were dissolved in DMSO (Applichem, Council Bluffs, IA, USA) until a concentration of 1 × 10^−^2 M was obtained; for the subsequent dilution of the substances, a serum-free culture medium was used. The next day, for adhesive cultures, and on the same day, for suspension cultures, substances were added to the plates in a volume of 10 μL (adhesive cultures) and 15 μL (suspension cultures) per well at various concentrations; each concentration was added in 3–4 repetitions. The cells were cultured in the presence of substances for 48 h. Then, MTT reagent (PanEko, Moscow, Russia) was added to the wells at a concentration of 5 mg/mL in a volume of 20 μL per well. After 1.5–2 h, the medium with the reagent was removed, and the precipitate of the crystals of formazan was dissolved in 60 μL of DMSO. The optical density was determined using a Multiskan FC spectrophotometer (Thermo Scientific, Waltham, MA, USA) at a wavelength of 540 nm.
(§4) Based on the results of the experiments, a schedule was plotted of the dependence of the percentage of surviving cells (from control) on the concentration of the compound, and the sought concentration IC50 was calculated. The experiments were carried out in 3–4 times.

For another data set, the system named is THP-1. As to the kind of experiment: MTT cytotoxicity, THP-1 acute monocytic leukemia cells. It is filed as cell-based. To be noted: Homo sapiens, suspension culture, 48 h.
Text: as §1, §2, §3, §4

For another data set, the target named is T1, P-glycoprotein (Homo sapiens, UniProt P08183).
T1 construct: expressed in transfected cells; host or cells: K562/i-S9_Dox (K562 transfected with ABCB1/MDR1, then selected with increasing doxorubicin)
As to the kind of experiment: Release of rhodamine 123 (Rd123) from K562/i-S9_Dox cells, flow cytometry. It is filed as cell-based. Particulars: K562/i-S9_Dox cells after Rd123 release, compound 20 μM, 35 min; release without compound 17.1 ± 6.6. As for the experimental part:
The principle of the test is as follows: Rd123 is a fluorophore and a known P-gp substrate. During incubation, Rd123 enters the cells by simple diffusion, and then Rd123 begins to interact with P-gp, which releases it from the cell. Cells in which Rd123 is present are stained and can be detected by flow cytometry. The more efficiently P-gp works, the less stained cells in the population remain over time.
The experiment used K562/i-S9_Dox cells with P-gp overexpression. Cells (5 × 10^5 per point) were incubated with Rd123 at a concentration of 3.5 μg/mL for 20 min in serum-free RPMI1640 medium. Furthermore, the efficiency of Rd123 entry into cells was assessed. […] Incubation with substances took place for 35 min in 1 mL of serum-free medium. Then, the cells were precipitated, washed with PBS solution, and the % of stained cells in the population were assessed on a flow cytometer.

In a further data set the test system is K562/i-S9_Dox. As to the kind of experiment: MTT cytotoxicity, resistant K562/i-S9_Dox cells (P-gp overexpression). It counts as cell-based, human. Particulars: Homo sapiens, K562; resistant version, doxorubicin selected, MTT, 48 h.
Text: At the next stage, the cytotoxic activity of compounds 1, 2, and 9 (Scheme 2) was investigated on several pairs of cell lines that differ in the expression of P-gp and the method by which they were obtained. K562/i-S9 cells are the result of the ABCB1 transfection into K562 cells, which increases P-gp expression, but should not seriously affect other signaling pathways that could lead to drug resistance. K562/i-S9_Dox cells were obtained from K562/i-S9 by selection with low concentrations of doxorubicin to increase P-gp expression. Subline HBL-100/Dox is a derivative of HBL-100 cells, obtained by long-term selection with increasing concentrations of doxorubicin, which led not only to an increase in P-gp expression, but also to a change in the signaling pathways in this subline. Cells of the K562/i-S9_Dox subline express the highest level of P-gp: 94.7% ± 2.3 (p < 0.0001 relative to K562, and p = 0.04 relative to K562/i-S9). In cells of the K562/i-S9 line, the expression of P-gp is 80% ± 8.2 (p < 0.0001 relative to K562). At 0.7% ± 0.5, P-gp is practically not expressed in K562 cells (Figure 1).
as §2, §3, §4

T1 sequence (P08183 whole entry): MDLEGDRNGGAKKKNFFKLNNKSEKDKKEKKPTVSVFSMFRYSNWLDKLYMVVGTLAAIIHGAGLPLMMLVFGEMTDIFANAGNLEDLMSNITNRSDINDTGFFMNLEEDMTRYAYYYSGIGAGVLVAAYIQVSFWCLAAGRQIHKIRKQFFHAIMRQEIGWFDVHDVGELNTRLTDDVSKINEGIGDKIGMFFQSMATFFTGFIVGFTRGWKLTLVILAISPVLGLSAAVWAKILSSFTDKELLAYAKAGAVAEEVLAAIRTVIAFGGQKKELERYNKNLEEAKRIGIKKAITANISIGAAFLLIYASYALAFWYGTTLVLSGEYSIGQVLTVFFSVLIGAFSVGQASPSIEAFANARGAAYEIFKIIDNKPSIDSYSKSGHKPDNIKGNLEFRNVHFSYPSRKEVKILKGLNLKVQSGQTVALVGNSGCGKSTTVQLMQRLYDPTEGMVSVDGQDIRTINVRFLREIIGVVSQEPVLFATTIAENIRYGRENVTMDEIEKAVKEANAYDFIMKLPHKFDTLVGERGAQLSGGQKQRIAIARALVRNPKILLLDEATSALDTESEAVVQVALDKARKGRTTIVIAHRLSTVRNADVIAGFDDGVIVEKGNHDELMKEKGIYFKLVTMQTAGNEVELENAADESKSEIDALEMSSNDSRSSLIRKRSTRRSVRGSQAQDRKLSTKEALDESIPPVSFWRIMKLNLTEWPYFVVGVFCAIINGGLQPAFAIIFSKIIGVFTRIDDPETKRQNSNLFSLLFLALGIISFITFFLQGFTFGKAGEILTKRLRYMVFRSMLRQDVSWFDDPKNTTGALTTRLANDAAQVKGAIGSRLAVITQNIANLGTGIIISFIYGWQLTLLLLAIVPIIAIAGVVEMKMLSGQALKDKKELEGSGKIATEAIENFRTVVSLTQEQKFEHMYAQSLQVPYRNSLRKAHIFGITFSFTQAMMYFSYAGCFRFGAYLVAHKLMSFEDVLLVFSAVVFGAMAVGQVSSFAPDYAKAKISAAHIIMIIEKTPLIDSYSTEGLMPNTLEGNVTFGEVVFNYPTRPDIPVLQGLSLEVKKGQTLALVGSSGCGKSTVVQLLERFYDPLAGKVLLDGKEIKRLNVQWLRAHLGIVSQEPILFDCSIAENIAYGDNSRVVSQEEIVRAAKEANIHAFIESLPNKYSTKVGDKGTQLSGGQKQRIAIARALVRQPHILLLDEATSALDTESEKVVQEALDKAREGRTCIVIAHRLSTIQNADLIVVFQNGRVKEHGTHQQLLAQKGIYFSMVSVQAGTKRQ

Take `C=C1C2=C(C(=O)N1OC)[C@@H](N1CCCC1)[C@@](C)(O)[C@H](CCCCC)O2` [Compound 1]: the values for the IC50 in the data set on PC3, with THP-1 and with K562/i-S9_Dox were 7.6 ± 0.9 µM, 1.5 ± 0.4 µM and 3.1 ± 0.8 µM, respectively. In addition, the “% Luminous Cells” value on P-glycoprotein was 73% and 73.4 ± 6.7%.

As to `C=C1C2=C(C(=O)N1OC)[C@@H](N(C)C)[C@@](C)(O)[C@H](CCCCC)O2` [Compound 2, (2S,3R,4R)-4-(dimethylamino)-3-hydroxy-6-methoxy-3-methyl-7-methylene-2-pentyl-3,4,6,7-tetrahydropyrano[2,3-c]pyrrol-5(2H)-one], the values for the IC50 in the data set with PC3, with THP-1 and in the data set with K562/i-S9_Dox were 5.9 ± 3 µM, 0.9 ± 0.3 µM and 2.4 ± 0.9 µM, respectively. Also, on P-glycoprotein, the “% Luminous Cells” value is 82% and 82.4 ± 3.0%.

For the compound `C=C1C2=C(C(=O)N1OC)[C@@H](N(CCCC)CCCC)[C@@](C)(O)[C@H](CCCCC)O2` [Compound 5, (2S,3R,4R)-4-(dibutylamino)-3-hydroxy-6-methoxy-3-methyl-7-methylene-2-pentyl-3,4,6,7-tetrahydropyrano[2,3-c]pyrrol-5(2H)-one], the IC50 with PC3 was 9.4 ± 1 µM; in the data set with THP-1, 8.2 ± 0.6 µM.

Consider `C=C1C2=C(C(=O)N1OC)[C@@H](N(CC)CCO)[C@@](C)(O)[C@H](CCCCC)O2` [Compound 9, (2S,3R,4R)-4-[ethyl(2-hydroxyethyl)amino]-3-hydroxy-6-methoxy-3-methyl-7-methylene-2-pentyl-3,4,6,7-tetrahydropyrano[2,3-c]pyrrol-5(2H)-one], for which the IC50 in the data set with PC3 stood at 7.8 ± 0.1 µM; with THP-1 it was 1.7 ± 0.2 µM; in the data set with K562/i-S9_Dox it was 3.3 ± 0.6 µM. In addition, on P-glycoprotein, the “% Luminous Cells” value was 80% and 80.2 ± 6.2%.

`CCCCC[C@@H]1OC2=C(C(=O)N(OC)/C2=C\n2cnnc2)C(n2cnnc2)[C@@]1(C)O` (stereo partly shown) [Compound 10]: the “IC50 value, PC3” value in the data set with PC3 (adhesive tumor culture) is listed as “not active”. For the same compound, the IC50 in the data set on THP-1 was determined as 42 ± 5.2 µM.
